Experimental data published in the supplement of paper PMC11451515.

Test system: P12-Ichikawa
Assay: cell viability relative to DMSO control; higher = less cytotoxic
Conditions: 48 h
Outline: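 Three leukemia lines were tested: NOMO1 and SEM at 500 cells/well and P12-Ichikawa at 1000 cells/well. Each was adapted for at least four passages in each medium and seeded in 5 μl in 1536-well plates, and library compounds in DMSO were pin-dosed from 47 μM to 0.79 nM in 11 threefold steps. After 48 h at 37°C, CellTiter-Glo One luminescence was read. Viability is a percentage relative to DMSO wells on each plate, with cell-free wells as background.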

[1] = HPLM + 10% dialyzed FBS, 0.000781 µM
[2] = HPLM + 10% dialyzed FBS, 0.00234 µM
[3] = HPLM + 10% dialyzed FBS, 0.00702 µM
[4] = HPLM + 10% dialyzed FBS, 0.0211 µM
[5] = HPLM + 10% dialyzed FBS, 0.0632 µM
[6] = HPLM + 10% dialyzed FBS, 0.19 µM
[7] = HPLM + 10% dialyzed FBS, 0.569 µM
[8] = HPLM + 10% dialyzed FBS, 1.71 µM
[9] = HPLM + 10% dialyzed FBS, 5.12 µM
[10] = HPLM + 10% dialyzed FBS, 15.4 µM
[11] = HPLM + 10% dialyzed FBS, 46.1 µM
[12] = RPMI 5 mM glucose + 10% FBS, 0.000781 µM
[13] = RPMI 5 mM glucose + 10% FBS, 0.00234 µM
[14] = RPMI 5 mM glucose + 10% FBS, 0.00702 µM
[15] = RPMI 5 mM glucose + 10% FBS, 0.0211 µM
[16] = RPMI 5 mM glucose + 10% FBS, 0.0632 µM
[17] = RPMI 5 mM glucose + 10% FBS, 0.19 µM
[18] = RPMI 5 mM glucose + 10% FBS, 0.569 µM
[19] = RPMI 5 mM glucose + 10% FBS, 1.71 µM
[20] = RPMI 5 mM glucose + 10% FBS, 5.12 µM
[21] = RPMI 5 mM glucose + 10% FBS, 15.4 µM
[22] = RPMI 5 mM glucose + 10% FBS, 46.1 µM
[23] = RPMI 5 mM glucose + 10% dialyzed FBS, 0.000781 µM
[24] = RPMI 5 mM glucose + 10% dialyzed FBS, 0.00234 µM
[25] = RPMI 5 mM glucose + 10% dialyzed FBS, 0.00702 µM
[26] = RPMI 5 mM glucose + 10% dialyzed FBS, 0.0211 µM
[27] = RPMI 5 mM glucose + 10% dialyzed FBS, 0.0632 µM
[28] = RPMI 5 mM glucose + 10% dialyzed FBS, 0.19 µM
[29] = RPMI 5 mM glucose + 10% dialyzed FBS, 0.569 µM
[30] = RPMI 5 mM glucose + 10% dialyzed FBS, 1.71 µM
[31] = RPMI 5 mM glucose + 10% dialyzed FBS, 5.12 µM
[32] = RPMI 5 mM glucose + 10% dialyzed FBS, 15.4 µM
[33] = RPMI 5 mM glucose + 10% dialyzed FBS, 46.1 µM

Compound | cell viability [1] [%] | cell viability [2] [%] | cell viability [3] [%] | cell viability [4] [%] | cell viability [5] [%] | cell viability [6] [%] | cell viability [7] [%] | cell viability [8] [%] | cell viability [9] [%] | cell viability [10] [%] | cell viability [11] [%] | cell viability [12] [%] | cell viability [13] [%] | cell viability [14] [%] | cell viability [15] [%] | cell viability [16] [%] | cell viability [17] [%] | cell viability [18] [%] | cell viability [19] [%] | cell viability [20] [%] | cell viability [21] [%] | cell viability [22] [%] | cell viability [23] [%] | cell viability [24] [%] | cell viability [25] [%] | cell viability [26] [%] | cell viability [27] [%] | cell viability [28] [%] | cell viability [29] [%] | cell viability [30] [%] | cell viability [31] [%] | cell viability [32] [%] | cell viability [33] [%]
Cc1ncc([N+](=O)[O-])n1CC(C)O (stereo not given) | 105 | 116 | 111 | 110 | 105 | 117 | 114 | 111 | 116 | 125 | 103 | 94.3 | 109 | 101 | 104 | 90.4 | 113 | 105 | 115 | 104 | 106 | 102 | 102 | 112 | 106 | 104 | 95.2 | 112 | 117 | 113 | 111 | 106 | 106
c1ccc(-c2oc3ncnc(NC[C@@H]4CCCO4)c3c2-c2ccccc2)cc1 |  |  |  |  |  |  |  |  |  |  |  |  |  |  |  |  |  |  |  |  |  |  | 109 | 118 | 120 | 113 | 127 | 124 | 128 | 115 | 112 | 103 | 49.8
CN1CCN(CCCN2c3ccccc3Sc3ccc(C(F)(F)F)cc32)CC1 | 100 | 105 | 105 | 108 | 106 | 111 | 117 | 119 | 111 | 42 | 12.4 | 101 | 108 | 109 | 109 | 119 | 119 | 113 | 116 | 112 | 34.1 | 13.8 | 94.8 | 105 | 99.6 | 104 | 106 | 105 | 112 | 123 | 115 | 93.8 | 39.4
N#C[C@H](O[C@@H]1O[C@H](CO[C@@H]2O[C@H](CO)[C@@H](O)[C@H](O)[C@H]2O)[C@@H](O)[C@H](O)[C@H]1O)c1ccccc1 | 110 | 106 | 108 | 102 | 103 | 96.6 | 99.5 | 97.7 | 90.8 | 91.7 | 55.4 | 99.5 | 98.5 | 92.5 | 97.5 | 104 | 99.5 | 94.2 | 88.4 | 89.9 | 94.5 | 48.5 | 98.6 | 96.2 | 95.6 | 101 | 97.6 | 86.1 | 90.6 | 89 | 82.9 | 87.3 | 31.8
